Values of other authors in patent publication US20150366978A1, “Compositions Containing Chondroitin Sulphate, Proteolytic Enzymes and Sulphydryl Compounds for Improving the Bioavailability of Chondroitin Sulphate” (GNOSIS S.P.A., priority 2013, published 2015).
Each block holds one substance with its values, some of them ahead of it.

How the values were obtained:
[1] = oral

Substance: bromelain
- oral bioavailability: around 40%

- total uptake of CS by the intestinal mucosa ([1]; including oligosaccharides, % of the polysaccharide ingested): 20-23%
Substance: chondroitin sulphate [CS]

- absorption of high-molecular-weight CS ([1]; absorbed as intact polysaccharide): 1-5%
Substance: chondroitin sulphate [high-molecular-weight CS]
